# Experimental data reported in patent publication US9393311B2, “Intravaginal ring comprising polyurethane composition for drug delivery” (DSM IP ASSETS B.V., priority 2010, dated 2016).
# “Also recorded” adds a separate entry of the source.
# Experiment: UC781 drug stability in compounded polyurethane after extrusion and accelerated storage
# Format: physicochemical
# Settings: 4-5 week, 60° C., with and without additives
# From the text: The drug stability in compounded lot #1100032 was also studied after extrusion and under accelerated storage conditions, with and without various antioxidants (Table 3).
compound,measurement,value
CC(C)=CCOc1cc(NC(=S)c2ccoc2C)ccc1Cl [UC781],UC781 stability in compounded lot #1100032,"Irganox is incompatible with UC781; also recorded: best stability with BHT, EDTA or without any additives"
